Laboratory results taken from ChEMBL document CHEMBL5365529, “Construction and Evaluation of Novel Dual-function Antifungal Inhibitors and Covalent Organic Framework Carriers Based on the Infection Microenvironment” (J Med Chem, 2023).
In brackets after ≈: the same amount, converted by molar mass. Activity calls are given as the source filed them. The rule behind the calls is not given here.

Columns and labels:
Candida albicans [1] = assay: Induction of mitochondrial membrane depolarization in Candida albicans SC5314 by JC-1 staining based flow cytometry (reference value: 12.51 %); format: functional
[2] = molecular target: T1, Lanosterol 14-alpha demethylase (Candida albicans (strain SC5314 / ATCC MYA-2876) (Yeast), UniProt P10613); assay: Inhibition of CYP51 in Candida albicans SC5314 using lanosterol as substrate incubated for 60 mins by HPLC analysis
[3] = Toxicity in BALB/c mouse infected with Candida albicans 901 assessed as pathological change in kidney at 0.5 ug/g administered 6 times measured after 4 days by H and E staining based analysis; format: tissue-based; conditions: in vivo, 96 h, dose 0.5 µg/g, time 4 day
Candida albicans [4] = assay: Induction of apoptosis in Candida albicans SC5314 assessed as apoptotic cells incubated for 48 hrs by annexin V-FITC/PI staining based flow cytometry (reference value: 2.12 %); format: functional
Candida albicans [5] = assay: Induction of morphological changes in Candida albicans SC5314 assessed as decrease in cell membrane thickness measured after 48 hrs by TEM analysis; format: functional, organism-based
Candida albicans [6] = assay: Antifungal activity against Candida albicans 901 infected in BALB/c mouse assessed as inhibition of fungal proliferation at 0.5 ug/g administered 6 times measured after 4 days by GMS staining based analysis; format: functional, organism-based; conditions: dose 0.5 µg/g, time 4.0 day
Mus musculus [7] = assay: Antiinflammatory activity in BALB/c mouse infected with Candida albicans 901 assessed as decrease in IL-2 level at 0.5 ug/g administered 6 times measured after 4 days by IHC analysis; format: functional, organism-based; conditions: dose 0.5 µg/g, time 4.0 day
Candida albicans [8] = assay: Induction of morphological changes in Candida albicans SC5314 assessed as edematous vacuoles measured for 96 to 144 hrs by TEM analysis; format: functional, organism-based; conditions: time 96-144 hrs
[9] = Toxicity in BALB/c mouse infected with Candida albicans 901 assessed as plasma CRE level at 0.5 ug/g administered 6 times measured after 4 days (reference value: 18.48 +/- 2.7 umol/L); conditions: in vivo, 96 h, dose 0.5 µg/g, time 4 day
Mus musculus [10] = assay: Antiinflammatory activity in BALB/c mouse infected with Candida albicans 901 assessed as decrease in INF-gamma level at 0.5 ug/g administered 6 times measured after 4 days by IHC analysis; format: functional, organism-based; conditions: dose 0.5 µg/g, time 4.0 day
[11] = molecular target: T1, Lanosterol 14-alpha demethylase; assay: Inhibition of CYP51 in Candida albicans SC5314 assessed as lanosterol level at 4 ug/ml incubated for 16 hrs by GC-MS analysis relative to control; set-up: scale not given: the % may be the effect or the level left; conditions: at 4 µg/mL
Nakaseomyces glabratus = assay: Antifungal activity against Candida glabrata assessed as fungal growth inhibition incubated for 72 hrs by CLSI based susceptibility test; format: functional
Candida albicans [12] = assay: Antifungal activity against Candida albicans 901 infected in BALB/c mouse assessed as appearance of necrotic cell fragments in interstitial space at 0.5 ug/g administered 6 times measured after 4 days by H and E staining based analysis; format: functional, organism-based; conditions: dose 0.5 µg/g, time 4.0 day
Candida albicans [13] = assay: Induction of morphological changes in Candida albicans SC5314 assessed as necrotic cellular debris measured for 96 to 144 hrs by TEM analysis; format: functional, organism-based; conditions: time 96-144 hrs
Candida albicans [14] = assay: Antifungal activity against FLC-resistant Candida albicans CaR assessed as fungal growth inhibition incubated for 72 hrs by CLSI based susceptibility test; format: functional
Candida albicans [15] = assay: Antifungal activity against Candida albicans 901 infected in BALB/c mouse assessed as decrease in collagen fiber content at 0.5 ug/g administered 6 times measured after 4 days by GMS staining based analysis; format: functional, organism-based; conditions: dose 0.5 µg/g, time 4.0 day
Candida albicans [16] = assay: Antifungal activity against Candida albicans 901 infected in BALB/c mouse assessed as restoration of infected tissue morphology at 0.5 ug/g administered 6 times measured after 4 days by H and E staining based analysis; format: functional, organism-based; conditions: dose 0.5 µg/g, time 4.0 day
Candida albicans [17] = assay: Induction of morphological changes in Candida albicans SC5314 assessed as change in cell structure measured after 48 hrs by TEM analysis; format: functional, organism-based
Candida albicans [18] = assay: Induction of morphological changes in Candida albicans SC5314 assessed as decrease in cell wall thickness measured after 48 hrs by TEM analysis; format: functional, organism-based
Candida albicans [19] = assay: Antifungal activity against FLC-resistant Candida albicans 17# assessed as fungal growth inhibition incubated for 72 hrs by CLSI based susceptibility test; format: functional
[20] = Toxicity in BALB/c mouse infected with Candida albicans 901 assessed as pathological change in heart at 0.5 ug/g administered 6 times measured after 4 days by H and E staining based analysis; format: tissue-based; conditions: in vivo, 96 h, dose 0.5 µg/g, time 4 day
Candida albicans [21] = assay: Antifungal activity against FLC-resistant Candida albicans 904 assessed as fungal growth inhibition incubated for 72 hrs by CLSI based susceptibility test; format: functional
[22] = Toxicity in BALB/c mouse infected with Candida albicans 901 assessed as plasma BUN level at 0.5 ug/g administered 6 times measured after 4 days (reference value: 20.4 +/- 1.5 mmol/L); conditions: in vivo, 96 h, dose 0.5 µg/g, time 4 day
Candida albicans [23] = assay: Antifungal activity against FLC-resistant Candida albicans 901 assessed as fungal growth inhibition incubated for 72 hrs by CLSI based susceptibility test; format: functional
[24] = Toxicity in BALB/c mouse infected with Candida albicans 901 assessed as plasma ALT level at 0.5 ug/g administered 6 times measured after 4 days (reference value: 30.4 +/- 4.6 IU/L); conditions: in vivo, 96 h, dose 0.5 µg/g, time 4 day
[25] = molecular target: Programmed cell death 1 ligand 1 (Homo sapiens, UniProt Q9NZQ7); assay: Binding affinity to PD-L1 (unknown origin) immobilized on carboxy chip assessed as dissociation constant by SPR analysis
Candida albicans [26] = assay: Induction of immunity in BALB/c mouse infected with Candida albicans 901 assessed as increase in CD8 positive level at 0.5 ug/g administered 6 times measured after 4 days by IHC analysis; format: functional, organism-based; conditions: dose 0.5 µg/g, time 4.0 day
[27] = Toxicity in BALB/c mouse infected with Candida albicans 901 assessed as pathological change in lung at 0.5 ug/g administered 6 times measured after 4 days by H and E staining based analysis; format: tissue-based; conditions: in vivo, 96 h, dose 0.5 µg/g, time 4 day
Candida tropicalis = assay: Antifungal activity against Candida tropicalis ATCC 1369 assessed as fungal growth inhibition incubated for 72 hrs by CLSI based susceptibility test; format: functional
Candida albicans [28] = assay: Antifungal activity against Candida albicans 901 infected in BALB/c mouse assessed as decrease in collagen fiber content at 0.5 ug/g administered 6 times measured after 4 days by Masson staining based analysis; format: functional, organism-based; conditions: dose 0.5 µg/g, time 4.0 day
Candida albicans [29] = assay: Induction of morphological changes in Candida albicans SC5314 assessed as reduction in cytoplasmic density measured for 96 to 144 hrs by TEM analysis; format: functional, organism-based; conditions: time 96-144 hrs
[30] = molecular target: T1, Lanosterol 14-alpha demethylase; assay: Inhibition of CYP51 in Candida albicans SC5314 assessed as unknown sterol level at 4 ug/ml incubated for 16 hrs by GC-MS analysis (reference value: 5.35 %); set-up: scale not given: the % may be the effect or the level left; conditions: at 4 µg/mL
[31] = Drug uptake in Candida albicans SC5314 assessed as increase in green fluorescence by imaging analysis; format: ADME
Candida albicans [32] = assay: Induction of apoptosis in Candida albicans SC5314 assessed as increase in ROS level at 1 uM/ml incubated for 48 hrs by fluorescence microscopy; format: functional, organism-based
[33] = Toxicity in BALB/c mouse infected with Candida albicans 901 assessed as pathological change in liver at 0.5 ug/g administered 6 times measured after 4 days by H and E staining based analysis; format: tissue-based; conditions: in vivo, 96 h, dose 0.5 µg/g, time 4 day
Cryptococcus neoformans = assay: Antifungal activity against Cryptococcus neoformans ZKCC 2209 assessed as fungal growth inhibition incubated for 72 hrs by CLSI based susceptibility test; format: functional
Candida albicans [34] = assay: Induction of morphological changes in Candida albicans SC5314 assessed as disappearance of nuclear domains measured for 96 to 144 hrs by TEM analysis; format: functional, organism-based; conditions: time 96-144 hrs

T1 sequence (P10613 whole entry): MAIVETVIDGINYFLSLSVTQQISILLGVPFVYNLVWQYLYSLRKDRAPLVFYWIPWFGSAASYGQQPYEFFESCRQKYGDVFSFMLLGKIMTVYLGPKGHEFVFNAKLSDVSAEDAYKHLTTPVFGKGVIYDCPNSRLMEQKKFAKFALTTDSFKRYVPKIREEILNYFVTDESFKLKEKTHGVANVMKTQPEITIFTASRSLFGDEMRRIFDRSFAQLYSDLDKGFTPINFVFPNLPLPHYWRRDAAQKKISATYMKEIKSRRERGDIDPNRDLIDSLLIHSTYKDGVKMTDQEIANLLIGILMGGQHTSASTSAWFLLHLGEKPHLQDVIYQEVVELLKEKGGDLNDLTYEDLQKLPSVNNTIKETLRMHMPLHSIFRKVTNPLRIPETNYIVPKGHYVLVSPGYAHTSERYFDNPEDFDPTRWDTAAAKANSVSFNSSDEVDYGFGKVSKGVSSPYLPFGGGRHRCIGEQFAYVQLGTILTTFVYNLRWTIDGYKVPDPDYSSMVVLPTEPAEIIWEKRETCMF
Programmed cell death 1 ligand 1, sequence (Q9NZQ7 whole entry): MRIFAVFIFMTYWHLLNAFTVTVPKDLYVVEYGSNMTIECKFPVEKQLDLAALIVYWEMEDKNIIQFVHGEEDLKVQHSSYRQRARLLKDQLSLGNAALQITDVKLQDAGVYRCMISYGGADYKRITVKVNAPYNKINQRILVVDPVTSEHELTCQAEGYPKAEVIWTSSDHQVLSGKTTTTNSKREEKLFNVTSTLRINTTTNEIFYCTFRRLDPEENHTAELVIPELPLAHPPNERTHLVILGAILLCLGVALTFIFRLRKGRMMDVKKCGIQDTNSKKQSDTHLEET

COC(=O)[C@@H](Cn1cncn1)NCc1cccc(OCc2cccc(-c3ccccc3)c2C)c1
Activity (Candida albicans [1]): 34.74%
IC50 [2]: 170 nM
Activity [3]: Non-Toxic
Activity (Candida albicans [4]): 25.91%
Activity (Candida albicans [5]): Active
inhibition (Candida albicans [6]): Active
Activity (Mus musculus [7]): Active
Activity (Candida albicans [8]): Active
Activity [9]: 10.91 µmol/L
Activity (Mus musculus [10]): Active
Activity [11]: 10.47%
MIC50 (Nakaseomyces glabratus): 0.125 µg/mL (≈ 0.274 µM)
Activity (Candida albicans [12]): Active
Activity (Candida albicans [13]): Active
MIC50 (Candida albicans [14]): 2 µg/mL (≈ 4.38 µM)
Activity (Candida albicans [15]): Active
Activity (Candida albicans [16]): Active
Activity (Candida albicans [17]): Active
Activity (Candida albicans [18]): Active
MIC50 (Candida albicans [19]): 4 µg/mL (≈ 8.76 µM)
Activity [20]: Non-Toxic
MIC50 (Candida albicans [21]): 2 µg/mL (≈ 4.38 µM)
Activity [22]: 24.7 mmol/L
MIC50 (Candida albicans [23]): 2 µg/mL (≈ 4.38 µM)
Activity [24]: 21.5 IU/L
Kd [25]: 15 nM
Activity (Candida albicans [26]): Active
Activity [27]: Non-Toxic
MIC50 (Candida tropicalis): 0.5 µg/mL (≈ 1.1 µM)
Activity (Candida albicans [28]): Active
Activity (Candida albicans [29]): Active
Activity [30]: 6.65%
Drug uptake [31]: Active
Activity (Candida albicans [32]): Active
Activity [33]: Non-Toxic
MIC50 (Cryptococcus neoformans): 0.5 µg/mL (≈ 1.1 µM)
Activity (Candida albicans [34]): Active
